These results are taken from US20240299431A1, “NEW SYNTHETIC AGONISTS OF TLR4 RECEPTOR” (UNIVERSITÀ DEGLI STUDI DI MILANO - BICOCCA, priority 2021, published 2024).

The test system of one series is RAW-Blue. Description: MTT viability assay on RAW-Blue cells. The class given is cell-based. Particulars: mouse macrophage line RAW-Blue. The protocol:
(§1) The toxicity of the compounds was evaluated by MTT viability assay (3-(4,5-dimethylthiazol-2-yl)-2,5-diphenyltetrazolium bromide).

In another series the test system is THP-1-X-Blue cells. Description: MTT viability assay on differentiated THP-1-X-Blue cells. The format is cell-based, human. The conditions noted are these: THP-1-X-Blue macrophages; for cell viability at the highest concentration tested: 50 μM; for toxicity (MTT viability): 0.1-50 μM. The protocol:
as §1
A preliminary test to investigate the toxicity of this functionalized compound was performed, even though without a triplicate.

The subject of series [1] is NF-kB. Description: THP-1-X Blue macrophages, NF-kB/AP-1 SEAP reporter. The class given is cell-based, human. The method, then:
(§2) THP-1-X BIue™ cell lines, monocytes differentiated into macrophages following treatment with PMA 100 ng/mL, and RAW-BIue™ were used. Similarly to HEK-Blue cells, THP-1 X-Blue and […] stably express the SEAP reporter gene, under the control of transcription factors NF-kB and AP-1. The cells were treated as previously described.
FP200 activity was then assessed on human monocytes cell line THP-1-X-Blues, described before. Cells were treated with compounds FP11, FP112, FP20, FP200 and FP21 in increasing concentrations (0.1, 1, 10, 20 μM) and using MPLA (0.1-1-10 μM) and S-LPS (100 ng/mL) as a reference and positive receptor activation control, respectively.
Compound FP207, functionalized with MPA, was tested in vitro on human THP-1-XBlue cells to evaluate the NF-kB activation.

The next series addresses T1, human TLR2 (Homo sapiens, UniProt O60603).
T1 construct: host or cells: HEK-Blue hTLR2 (HEK reporter cell line)
In words: HEK-Blue hTLR2 SEAP reporter assay. The format is cell-based. The conditions noted are these: HEK-Blue hTLR2 cells, compounds 0.1-25 μM; PAM2CSK4 positive control (1 ng/mL). An excerpt: HEK-BIue™ hTLR4 and HEK-BIue™ hTLR2 (InvivoGen) are cell lines designed to study the activation of human TLR4 and TLR2 receptors, respectively, by monitoring the activation of transcription factors NF-kB and AP-1. Stimulation with TLR4 ligands (in the case of HEK-Blue hTLR4) or with TLR2 ligands (in the case of HEK-Blue hTLR2) activates NF-kB and AP-1, inducing the production and release of the SEAP reporter gene (phosphatase secreted embryonic alkaline) in the extracellular environment. The analysis of the reporter gene was performed using the QUANTI-Blue™ colorimetric assay (InvivoGen), a substrate of SEAP, which generates a chromogenic product whose absorbance is read at 630 nm. […] The molecules were subsequently tested on the HEK-Blue hTLR2 cell line with the aim of excluding the activation of this receptor. In this regard, HEK-Blue hTLR2 cells were treated with the same compounds and at the same concentrations as the tests conducted previously and the compound PAM2CSK4 was used as a positive control for TLR2 activation.

Series [2] has as its system NF-kB. Description: RAW-Blue murine macrophages, NF-kB/AP-1 SEAP reporter. The format is cell-based. Particulars: RAW-blue line. The method, then:
as §2

For series [3] the following is noted: tumour-affected patients; cited from earlier work.
In series [4] the test system is interleukin-6 (IL-6), interleukin-8 (IL-8) and TNF-α. Particulars: murine macrophages and neutrophil granulocytes; cited from earlier work.
For the next series, the system named is Escherichia coli. The conditions noted are these: one dose one day prior to microbial inoculation; cited from earlier work.
The nature of series [5]: Pilot in vivo toxicity of adjuvants in mice. Details: species or system C57Bl/6 mice. The conditions noted are these: 10 μg subcutaneously, over 7 days. The protocol: (§3) The ability of FP11 and FP112 to induce immune responses in vivo was compared to MPLA by evaluating antibody production in C57Bl/6 mice immunized with chicken ovalbumin (OVA) as a model antigen. Has been first evaluated the toxicity of FPs in a pilot experiment in which mice were injected subcutaneously with 10 μg of the FP11 and FP112. […] Next, mice were immunized with the tested adjuvants mixed with ovalbumin (OVA). The induction of antibody was evaluated 21 days post immunization.

The subject of series [6] is Hek-Blue, Raw-Blue, THP-1 cells. The conditions noted are these: prior art section, cited from earlier work.
A further series deals with HEK-Blue Null cells. In words: HEK-Blue Null cells SEAP reporter (lack the LPS receptors). The class given is cell-based, human.
In series [7] the test system is IL-1α, IL-1β, IL-6, TNF-α and IFNβ. Particulars: cited from earlier work.
Series [8] has as its system Hek-Blue, Raw-Blue, THP-1 cells. Description: In vitro tests on Hek-Blue, Raw-Blue and THP-1 cells (summary statements). The format is cell-based.
The subject of series [9] is C57Bl/6 mice immunized with chicken ovalbumin (OVA). In words: OVA immunization, adjuvant activity (anti-OVA total IgG). The class given is in vivo. The conditions noted are these: for anti-OVA total IgG after prime immunization compared to MPLA-OVA immunized animals / anti-OVA total IgG after prime immunization compared to OVA-immunized control: 21 days post immunization. The protocol:
as §3

For a further series, the target named is T2, human TLR4 (Homo sapiens, UniProt O00206+Q9Y6Y9).
T2 construct: host or cells: HEK-Blue hTLR4 (HEK293-derived)
In words: Inhibition of LPS-induced SEAP production in HEK-Blue hTLR4 cells (antagonism). The format is cell-based.

The test system of the next series is TLR4. Particulars: both murine and human cells; cited from earlier work.

Entries after “also recorded” stand apart in the source; their conditions may differ. Where two headings read alike, the source gives them in different places.

T1 sequence (O60603 21-784): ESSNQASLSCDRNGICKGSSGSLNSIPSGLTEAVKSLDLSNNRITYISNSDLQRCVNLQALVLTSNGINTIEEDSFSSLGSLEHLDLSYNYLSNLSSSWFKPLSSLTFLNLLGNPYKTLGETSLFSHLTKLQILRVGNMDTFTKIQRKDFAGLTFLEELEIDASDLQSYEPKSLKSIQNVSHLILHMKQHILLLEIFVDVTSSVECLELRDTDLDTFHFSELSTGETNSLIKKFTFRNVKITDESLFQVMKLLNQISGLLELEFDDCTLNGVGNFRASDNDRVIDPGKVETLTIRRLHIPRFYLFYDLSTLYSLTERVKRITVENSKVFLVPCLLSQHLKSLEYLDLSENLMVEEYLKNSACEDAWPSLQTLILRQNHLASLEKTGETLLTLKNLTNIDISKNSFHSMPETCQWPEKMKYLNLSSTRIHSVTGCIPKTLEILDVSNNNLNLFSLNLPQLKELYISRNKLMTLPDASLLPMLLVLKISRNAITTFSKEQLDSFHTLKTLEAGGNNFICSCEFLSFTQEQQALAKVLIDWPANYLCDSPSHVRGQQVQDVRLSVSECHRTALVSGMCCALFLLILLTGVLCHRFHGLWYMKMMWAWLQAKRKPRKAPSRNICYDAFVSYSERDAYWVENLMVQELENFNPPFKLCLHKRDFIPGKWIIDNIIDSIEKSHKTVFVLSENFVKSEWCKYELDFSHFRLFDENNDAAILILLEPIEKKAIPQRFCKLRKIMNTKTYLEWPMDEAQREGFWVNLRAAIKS
T2 sequence (O00206 24-839): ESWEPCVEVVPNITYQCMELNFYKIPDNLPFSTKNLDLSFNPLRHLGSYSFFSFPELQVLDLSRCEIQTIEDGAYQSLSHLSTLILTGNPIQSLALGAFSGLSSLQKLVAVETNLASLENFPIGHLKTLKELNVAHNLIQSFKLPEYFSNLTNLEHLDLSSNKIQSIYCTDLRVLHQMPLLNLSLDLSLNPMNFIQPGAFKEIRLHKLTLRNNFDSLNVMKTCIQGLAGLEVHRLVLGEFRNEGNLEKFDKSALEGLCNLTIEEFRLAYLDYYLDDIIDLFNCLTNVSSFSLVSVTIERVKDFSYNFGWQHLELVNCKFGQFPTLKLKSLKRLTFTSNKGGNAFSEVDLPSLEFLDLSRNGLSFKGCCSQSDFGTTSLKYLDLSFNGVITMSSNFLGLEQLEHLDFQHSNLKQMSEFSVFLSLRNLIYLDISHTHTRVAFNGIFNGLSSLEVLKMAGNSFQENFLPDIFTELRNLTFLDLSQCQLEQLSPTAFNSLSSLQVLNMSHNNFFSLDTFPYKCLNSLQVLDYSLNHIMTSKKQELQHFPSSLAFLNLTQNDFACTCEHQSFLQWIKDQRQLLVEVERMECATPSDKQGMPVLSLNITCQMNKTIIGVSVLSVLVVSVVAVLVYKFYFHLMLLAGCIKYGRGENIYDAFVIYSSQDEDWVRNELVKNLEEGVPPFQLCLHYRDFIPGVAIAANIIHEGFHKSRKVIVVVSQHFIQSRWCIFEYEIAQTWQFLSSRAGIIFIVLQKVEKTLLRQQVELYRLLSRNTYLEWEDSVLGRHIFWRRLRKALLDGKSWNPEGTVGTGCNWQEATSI
T2 sequence (Q9Y6Y9 17-160 limits assumed): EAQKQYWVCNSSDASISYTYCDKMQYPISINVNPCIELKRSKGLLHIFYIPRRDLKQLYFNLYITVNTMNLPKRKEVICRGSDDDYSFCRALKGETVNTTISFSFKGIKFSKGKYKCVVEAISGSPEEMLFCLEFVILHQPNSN

Turning to `CCCCCCCCCCCC(=O)NC1C(OC(=O)CCCCCCCCCCC)OC(CO)C(OP(=O)([O-])[O-])C1OC(=O)CCCCCCCCCCC.[Na+].[Na+]` (centres unmarked) [FP20], in the series on RAW-Blue (50 μM), the “toxicity (MTT viability)” value is given as “increase in the toxicity”. Besides, in the series on THP-1-X-Blue cells, the “cell viability at the highest concentration tested” value was “decrease in cell viability” and the “toxicity (MTT viability)” value is given as “non-toxic”. Moreover, in the series on NF-kB [1], the “concentration from which the compounds activate significantly” value was 10 µM. For the same compound, the “activation of TLR2 (SEAP)” value at human TLR2 was “did not produce any activation”. For the same compound, the “lowest concentration tested at which the compounds are active” value (from here on “lowest concentration tested”) in the series on NF-kB [2] was 0.1 µM.
Take `CCCCCCCCCCCCCC(=O)OC1OC(CO)C(OP(=O)([O-])[O-])C(OC(=O)CCCCCCCCCCCCC)C1NC(=O)CCCCCCCCCCC.[Na+].[Na+]` (centres unmarked) [FP21]: the “toxicity (MTT viability)” value with RAW-Blue (50 μM) was “increase in the toxicity”; with THP-1-X-Blue cells, “non-toxic”. Further, in the series with NF-kB [1], the “concentration from which the compounds activate significantly” value is 10 µM. For the same compound, the “activation of TLR2 (SEAP)” value on human TLR2 is “did not produce any activation”. The “lowest concentration tested” value with NF-kB [2] worked out at 0.1 µM.
For the compound `CCCCCCCCCCC[C@@H](O)CC(=O)N[C@H]1[C@@H](OP(=O)(O)O)O[C@H](CO)[C@@H](OC(=O)C[C@H](O)CCCCCCCCCCC)[C@@H]1OC(=O)C[C@H](O)CCCCCCCCCCC` [SDZ MRL 953], in series [3], the “granulocyte counts and serum cytokine levels” value was “increases granulocyte counts and serum levels of G-CSF and interleukin-6 (IL-6), but not of pro-inflammatory cytokines TNF-α, IL-1b, and IL-8”; the “safety and tolerability in humans” value was “safe and of excellent tolerability”. The “stimulation of release of inflammatory cytokines” value in series [4] is given as “potent activity”. The “effect on curative effects of antibiotics” value in the series with Escherichia coli is “dramatically increased the curative effects of antibiotics administered”.
As to `CCCCCCCCCCCCCC(=O)NC1C(OC(=O)CCCCCCCCCCCCC)OC(CO)C(OP(=O)([O-])[O-])C1OC(=O)CCCCCCCCCCCCC.[Na+].[Na+]` (centres unmarked) [FP23], the entries for the “toxicity (MTT viability)” value with RAW-Blue (25 μM), in the series with RAW-Blue (50 μM) and in the series with THP-1-X-Blue cells were “show toxicity”, “increase in the toxicity” and “non-toxic”, respectively. Besides, in the series with THP-1-X-Blue cells, the “cell viability at the highest concentration tested” value is reported as “decrease in cell viability”. Further, the “activation of TLR2 (SEAP)” value at human TLR2 is given as “did not produce any activation”. For the same compound, the “lowest concentration tested” value with NF-kB [2] was 0.1 µM.
Take `CCCCCCCCCCCC(=O)NC1C(OC(=O)CCCCCCCCC)OC(CO)C(OP(=O)([O-])[O-])C1OC(=O)CCCCCCCCC.[Na+].[Na+]` (centres unmarked) [FP24]: the “toxicity (MTT viability)” value in the series with RAW-Blue (50 μM) is reported as “increase in the toxicity”; in the series with THP-1-X-Blue cells it was “non-toxic”. In addition, the “concentration from which the compounds activate significantly” value in the series on NF-kB [1] was found to be 10 µM. For the same compound, the “activation of TLR2 (SEAP)” value on human TLR2 is listed as “did not produce any activation”. In addition, the “lowest concentration tested” value in the series with NF-kB [2] was 0.1 µM.
Turning to `CCCCCCCCCCCC(=O)NC1C(OP(=O)(O)O)OC(CO)C(OC(=O)CCCCCCCCCCC)C1OC(=O)CCCCCCCCCCC` (centres unmarked) [FP112], the “adverse effect on mice (local response at injection site, weight, alertness)” value in [5] was “no collateral damage; also recorded: no obvious adverse effect”. Also, the pro-inflammatory activity entry in series [6] (10 μM) is on record as “good pro-inflammatory activity”; in series [8] (10 μM), “good pro-inflammatory activy”. In addition, the toxicity in vitro result in series [6] and in series [8] was “low toxicity” throughout. Moreover, the “activity on HEK-Blue Null cells” value in the series on HEK-Blue Null cells is listed as “lack of activity”. Moreover, the “release of proinflammatory cytokines” value in [7] is recorded as “able to stimulate the release of numerous proinflammatory cytokines”. Also, the “anti-OVA total IgG after prime immunization compared to MPLA-OVA immunized animals” value in [9] is listed as “significantly lower levels”. Besides, in series [9], the “anti-OVA total IgG after prime immunization compared to OVA-immunized control” value is reported as “marginally higher levels”. Besides, the “ova-specific IgG levels after boost immunization” value in series [9] (boost on day 22, examined 14 days later) is recorded as “higher than those in the FP11-immunized group”. Further, in [9] (compared to FP11 and MPLA), the “effectiveness/potency as vaccine adjuvant in vivo” value was “comparable to that of MPLA; also recorded: more effective adjuvant in vivo than FP11 and has a potency comparable or even greater than MPLA”. Moreover, the “inhibition of LPS-induced SEAP production (TLR4 antagonistic activity)” value on human TLR4 is on record as “did not inhibit LPS-induced SEAP production”.
In the case of `CCCCCCCCCC(=O)NC1C(OC(=O)CCCCCCCCC)OC(CO)C(OP(=O)([O-])[O-])C1OC(=O)CCCCCCCCC.[Na+].[Na+]` (centres unmarked) [FP22], the entries for the “toxicity (MTT viability)” value in the series with RAW-Blue (50 μM) and in the series on THP-1-X-Blue cells were “increase in the toxicity” and “non-toxic”, respectively.
Take `CCCCCCCCCCCCCC(=O)NC1C(OC(=O)CCCCCCCCCCCCC)[C@H](OC(=O)CCCCCCCCCCCCC)C(CO)O[C@H]1OP(=O)(O)O` (some centres unmarked) [FP11]: in series [5], the “adverse effect on mice (local response at injection site, weight, alertness)” value is “no obvious adverse effect”. In addition, in the series with HEK-Blue Null cells, the “activity on HEK-Blue Null cells” value was “lack of activity”. Also, in series [9], the “anti-OVA total IgG after prime immunization compared to MPLA-OVA immunized animals” value is “significantly lower levels” and the “anti-OVA total IgG after prime immunization compared to OVA-immunized control” value is reported as “marginally higher levels”. Moreover, the “inhibition of LPS-induced SEAP production (TLR4 antagonistic activity)” value on human TLR4 is recorded as “did not inhibit LPS-induced SEAP production”.
Consider PAM2CSK4, for which the “activation of TLR2 (SEAP)” value at human TLR2 is “strong activation of TLR2”.
Regarding `CCCCCCCCCCCCCC(=O)OC(CCCCCCCCCCC)CC(=O)O[C@H]1[C@H](OP(=O)(O)O)[C@@H](CO)OC(O)[C@@H]1NC(=O)CC(O)CCCCCCCCCCC` (some centres unmarked) [GLA60], the “stimulation of TLR4-dependent production of cytokines TNF-α and IL-6” value with TLR4 is recorded as “active”.
